From patent US20100093076A1, “SOLUBLE IL-27 RECEPTOR” (priority 2006, published 2010)

Assays:
mouse spleens = test: IL-27 EC90 determination, phosphorylated STAT3 in mouse spleens; format: cell-based; settings: read-out: EC90 concentration
Excerpt: (§1) Whole mouse spleens were harvested from C57 B1/6 mice and washed two times with 1×PBS before being plated out at 2×10^5 cells/well in assay media (RPMI 1640 plus 10% fetal bovine serum) in 96-well, round-bottom tissue culture plates. Total human PBMC (peripheral blood mononuclear cells) were thawed from a frozen vial collected from a leukapherisis donation and washed two times with 1×PBS before being plated out at 10^6 cells/well in assay media in 96-well, round-bottom tissue culture plates. […] Following pre-incubation, treatments were added to the plates containing the cells and incubated together at 37° C. for 15 minutes.
(§2) Following incubation, cells were washed with ice-cold wash buffer (BIO-PLEX Cell Lysis Kit, BIO-RAD Laboratories, Hercules, Calif.) and put on ice to stop the reaction according to manufacturer's instructions. […]
(§3) Capture beads (BIO-PLEX Phospho-Stat3 Assay, BIO-RAD Laboratories) were combined with 50 μL of 1:1 diluted lysates and added to a 96-well filter plate according to manufacture's instructions (BIO-PLEX Phosphoprotein Detection Kit, BIO-RAD Laboratories). […] After the final wash, beads were resuspended in 125 μL/well of bead suspension buffer, shaken for 30 seconds, and read on an array reader (BIO-PLEX, BIO-RAD Laboratories) according to the manufacture's instructions. Data were analyzed using analytical software (BIO-PLEX MANAGER 3.0, BIO-RAD Laboratories). […]

total human PBMCs = test: IL-27 EC90 determination, phosphorylated STAT3 in total human PBMCs; format: cell-based; settings: read-out: EC90 concentration
Excerpt: as §1, §2, §3

EC90 (mouse spleens): 2 nM
Substance: huIL-27: Human IL-27 (R&D Systems)
EC90 (total human PBMCs): 2 nM
